≈ marks a conversion by molar mass, not a printed value.

These results are taken from patent US20240270762A1, “PENICILLIN-BINDING PROTEIN INHIBITORS” (priority 2021, published 2024).

The target of assay [1] is T1, PBP3 from Escherichia coli (K-12) (Escherichia coli, UniProt P0AD68).
T1 construct: made in house
In words: Bocillin-FL fluorescence polarization competition binding, E. coli PBP3. A digest of the protocol:
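Purified PBP was preincubated with inhibitor (E. coli PBP3 1.5 μM, 30 min; P. aeruginosa PBP3 0.75 μM, A. baumannii PBP3 0.2 μM and PBP1a 1 μM, 15 min), then Bocillin-FL (0.1 μM; 0.05 μM for PBP1a) added and FP read up to 60 min. EC50 = 50% loss of bound probe.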

For assay [2], the system named is E. coli AG100. Description: microbe, parasite or virus in culture. To be noted: Escherichia coli, AG100, read-out: MIC E. coli AG100. The format is cell-based.
Assay [3] concerns N. gonorrhoeae WHO X. Description: Liquid broth MIC in Fastidious broth. The note with it: Neisseria gonorrhoeae, read-out: Minimum Inhibitory Concentration (MIC), N. gonorrhoeae WHO X.
The test system of assay [4] is N. gonorrhoeae WHO Z. In words: Liquid broth MIC in Fastidious broth. To be noted: Neisseria gonorrhoeae, read-out: Minimum Inhibitory Concentration (MIC), N. gonorrhoeae WHO Z.
Experimental: Additional antibacterial testing of the series was performed in 8 reference strains of N. gonorrhoeae (ATCC 49226, FA1090, MS 11, WHO G, WHO L, WHO M, WHO K, WHO X, WHO Z, WHO Q, CDC-0197). ATCC 49226, FA1090, MS11, WHO G, WHO L, and WHO M produce wild type or wild-type like PBP2. WHO K, WHO X, WHO Z, WHO Q, and CDC-0197 produce mosaic PBP2. Liquid broth-based assays were used for antibacterial testing of PBP inhibitors in Neisseria gonorrhoeae. Briefly, cryo-preserved bacterial cultures of clinical strains were streaked for isolation on Chocolate Agar (72 g/L (2×) GC Agar Base (BD #228950) and 2% (2×) Hemoglobin was autoclaved at 121° C. for 20 minutes to sterilize. Once cooled to ˜50° C. the 2×GC Agar Base and 2× Hemoglobin solutions are combined and 1% IsoVitaleX Enrichment (BD #211876) was added to the solution). Strains were incubated at 36° C. and 5% CO2 to allow growth of colonies, 24 hours before inoculum preparation. 2-fold serial dilutions of test compounds were conducted in a 96 well plate with a final volume of 75 μL per well at 2-fold the final desired concentration in Fastidious broth (Remel #R07664). For preparation of assay inoculum, a direct suspension was prepared by aseptically swabbing 10-15 colonies from agar plates into culture tubes containing 2 mL of fresh sterile saline. After the dilution plates were set up, direct suspensions were then diluted in a cuvette containing sterile saline and the optical density was measured at 600 nm. Inocula were diluted such that 75 μL of this culture in Fastidious broth results in a starting bacterial concentration of 5×10^5 CFU/mL when added to the dilution plates. The plates were incubated for ˜24 hours at 36° C. and 5% CO2.

T1 sequence (P0AD68 1-577): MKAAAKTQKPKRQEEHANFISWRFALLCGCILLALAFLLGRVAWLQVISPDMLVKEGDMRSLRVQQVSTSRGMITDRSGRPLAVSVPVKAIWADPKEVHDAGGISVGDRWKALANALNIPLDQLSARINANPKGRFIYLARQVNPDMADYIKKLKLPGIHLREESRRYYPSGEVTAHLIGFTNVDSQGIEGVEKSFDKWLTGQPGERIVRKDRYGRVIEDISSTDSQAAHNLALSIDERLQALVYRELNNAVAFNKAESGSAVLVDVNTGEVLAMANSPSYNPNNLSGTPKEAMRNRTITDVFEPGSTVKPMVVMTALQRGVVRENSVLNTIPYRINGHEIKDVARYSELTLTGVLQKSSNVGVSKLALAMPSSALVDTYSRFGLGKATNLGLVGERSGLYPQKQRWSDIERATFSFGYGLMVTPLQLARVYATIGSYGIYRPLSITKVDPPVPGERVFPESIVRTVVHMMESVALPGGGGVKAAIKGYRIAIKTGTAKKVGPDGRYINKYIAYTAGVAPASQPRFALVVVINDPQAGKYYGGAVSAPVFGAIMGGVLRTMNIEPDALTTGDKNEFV

For the molecule `O=C(O)c1cccc2c1OB(O)[C@@H](NC(=O)[C@H](NC(=O)[C@@H]1CCCN1)c1ccc(P(=O)(O)O)cc1)C2` [Example 173, (R)-2-hydroxy-3-((R)-2-(4-phosphonophenyl)-2-((S)-pyrrolidine-2-carboxamido)acetamido)-3,4-dihydro-2H-benzo[e][1,2]oxaborinine-8-carboxylic acid], in assay [1], the EC50 (in general, the concentration needed to bring the measured effect to its halfway point) was in the range of 50 to 250 µM. For the same molecule, the MIC in assay [2] is greater than 128 µg/mL; in assay [3] it was 16 to 32 µg/mL (≈ 30.9 to 61.9 µM); in assay [4], 16 to 32 µg/mL (≈ 30.9 to 61.9 µM).

Molecule `O=C(O)c1cccc2c1OB(O)[C@@H](NC(=O)C(NC(=O)c1ccc[nH]c1=O)c1ccc(P(=O)(O)O)cc1)C2` (stereo partly drawn) [Example 174, (3R)-2-hydroxy-3-(2-(2-oxo-1,2-dihydropyridine-3-carboxamido)-2-(4-phosphonophenyl)acetamido)-3,4-dihydro-2H-benzo[e][1,2]oxaborinine-8-carboxylic acid] displayed an EC50 in assay [1] of 50 to 250 µM. Also, the MIC was greater than 128 µg/mL in assay [2], 16 to 32 µg/mL (≈ 29.6 to 59.1 µM) in assay [3] and 16 to 32 µg/mL (≈ 29.6 to 59.1 µM) in assay [4].

As to `O=C(O)c1cccc2c1OB(O)[C@@H](NC(=O)[C@H](NC(=O)c1c[nH]ccc1=O)c1ccc(P(=O)(O)O)cc1)C2` [Example 175, (R)-2-hydroxy-3-((R)-2-(4-oxo-1,4-dihydropyridine-3-carboxamido)-2-(4-phosphonophenyl)acetamido)-3,4-dihydro-2H-benzo[e][1,2]oxaborinine-8-carboxylic acid], in assay [1], the EC50 is less than 10 µM. The MIC in assay [2] was in the range of 32 to 64 µg/mL (≈ 59.1 to 118 µM); in assay [3] it was 16 to 32 µg/mL (≈ 29.6 to 59.1 µM); in assay [4], 4 to 8 µg/mL (≈ 7.39 to 14.8 µM).

For `O=C(O)c1cccc2c1OB(O)[C@@H](NC(=O)C(NC(=O)c1cnc[nH]c1=O)c1ccc(P(=O)(O)O)cc1)C2` (stereo partly drawn) [Example 176, (3R)-2-hydroxy-3-(2-(6-oxo-1,6-dihydropyrimidine-5-carboxamido)-2-(4-phosphonophenyl)acetamido)-3,4-dihydro-2H-benzo[e][1,2]oxaborinine-8-carboxylic acid], the concentration for a half-maximal effect (EC50) in assay [1] was in the range of 50 to 250 µM. Moreover, the figures for the MIC in assay [2], in assay [3] and in assay [4] were greater than 128 µg/mL, 16 to 32 µg/mL (≈ 29.5 to 59 µM) and 16 to 32 µg/mL (≈ 29.5 to 59 µM), respectively.

Regarding `N#Cc1ccnc(C(=O)NC(C(=O)N[C@H]2Cc3cccc(C(=O)O)c3OB2O)c2ccc(P(=O)(O)O)cc2)c1` (stereo partly drawn) [Example 179, (3R)-3-(2-(4-cyanopicolinamido)-2-(4-phosphonophenyl)acetamido)-2-hydroxy-3,4-dihydro-2H-benzo[e][1,2]oxaborinine-8-carboxylic acid], the EC50 in assay [1] is 50 to 250 µM. Further, the MIC in assay [2] was greater than 128 µg/mL; in assay [3], 16 to 32 µg/mL (≈ 29.1 to 58.2 µM); in assay [4], 16 to 32 µg/mL (≈ 29.1 to 58.2 µM).

For the molecule `N#Cc1cccc(C(=O)N[C@@H](C(=O)N[C@H]2Cc3cccc(C(=O)O)c3OB2O)c2ccc(P(=O)(O)O)cc2)n1` [Example 180, (R)-3-((R)-2-(6-cyanopicolinamido)-2-(4-phosphonophenyl)acetamido)-2-hydroxy-3,4-dihydro-2H-benzo[e][1,2]oxaborinine-8-carboxylic acid], the EC50 in assay [1] is less than 10 µM. Also, the MIC in assay [2] is greater than 128 µg/mL; in assay [3] it was 4 to 8 µg/mL (≈ 7.27 to 14.5 µM); in assay [4], less than 1 µg/mL.

As for `O=C(O)c1cccc2c1OB(O)[C@@H](NC(=O)C(NC(=O)c1ncccc1Cl)c1ccc(P(=O)(O)O)cc1)C2` (stereo partly drawn) [Example 183, (3R)-3-(2-(3-chloropicolinamido)-2-(4-phosphonophenyl)acetamido)-2-hydroxy-3,4-dihydro-2H-benzo[e][1,2]oxaborinine-8-carboxylic acid], the EC50 in assay [1] was in the range of 50 to 250 µM. Moreover, the values for the MIC in assay [2], in assay [3] and in assay [4] were greater than 128 µg/mL, 16 to 32 µg/mL (≈ 28.6 to 57.2 µM) and 16 to 32 µg/mL (≈ 28.6 to 57.2 µM), respectively.

In turn, `O=C(NC(C(=O)N[C@H]1Cc2cccc(C(=O)O)c2OB1O)c1ccc(P(=O)(O)O)cc1)c1ccc(Cl)cn1` (stereo partly drawn) [Example 184, (3R)-3-(2-(5-chloropicolinamido)-2-(4-phosphonophenyl)acetamido)-2-hydroxy-3,4-dihydro-2H-benzo[e][1,2]oxaborinine-8-carboxylic acid] came in with an EC50 in assay [1] of less than 10 µM. Moreover, the figures for the MIC in assay [2], in assay [3] and in assay [4] were greater than 128 µg/mL, 4 to 8 µg/mL (≈ 7.15 to 14.3 µM) and less than 1 µg/mL, respectively.

Molecule `NC(=O)c1ccc(C(=O)NC(C(=O)N[C@H]2Cc3cccc(C(=O)O)c3OB2O)c2ccc(P(=O)(O)O)cc2)nc1` (stereo partly drawn) [Example 188, (3R)-3-(2-(5-carbamoylpicolinamido)-2-(4-phosphonophenyl)acetamido)-2-hydroxy-3,4-dihydro-2H-benzo[e][1,2]oxaborinine-8-carboxylic acid] showed an EC50 in assay [1] of 10 to 50 µM. Further, the MIC is greater than 128 µg/mL in assay [2], 4 to 8 µg/mL (≈ 7.04 to 14.1 µM) in assay [3] and 1 to 2 µg/mL (≈ 1.76 to 3.52 µM) in assay [4].

Molecule `CCN1CCN(C(=O)NC(C(=O)N[C@H]2Cc3cccc(C(=O)O)c3OB2O)c2ccc(S(=O)(=O)O)cc2)C(=O)C1=O` (stereo partly drawn) [Example 189, (3R)-3-(2-(4-ethyl-2,3-dioxopiperazine-1-carboxamido)-2-(4-sulfophenyl)acetamido)-2-hydroxy-3,4-dihydro-2H-benzo[e][1,2]oxaborinine-8-carboxylic acid] gave an EC50 in assay [1] of 10 to 50 µM. Besides, the MIC in assay [2] fell in the range of 32 to 64 µg/mL (≈ 54.4 to 109 µM); in assay [3], 4 to 8 µg/mL (≈ 6.8 to 13.6 µM); in assay [4], 1 to 2 µg/mL (≈ 1.7 to 3.4 µM).
